Measurements as given in US6821980B1, “Substituted 5-benzyl-2,4-diaminopyrimidines” (Basilea Pharmaceutica AG, priority 1999, dated 2004).
≈ marks a conversion by molar mass, not a printed value. Where two headings read alike, the source gives them in different places.

Assays:
[1] = tested on: Staphylococcus aureus 101; assay: MIC against Staphylococcus aureus 101; assay type: cell-based; settings: Staphylococcus aureus 101, MRSA- and trimethoprim-resistant, clinical isolate, read-out: MIC Sa101
[2] = target: purified DHFR of strain 157/4696 of Staphylococcus aureus (Staphylococcus aureus, UniProt P13955); assay: biochemical
[3] = tested on: Streptococcus pneumoniae 1/1; assay: MIC against Streptococcus pneumoniae 1/1; assay type: cell-based; settings: Streptococcus pneumoniae 1/1, trimethoprim- and penicillin-resistant, serotype 6, clinical isolate, read-out: MIC Sp1/1
[4] = target: T1, purified DHFR of strain Sp1/1 of Streptococcus pneumoniae (Streptococcus pneumoniae serotype 4, UniProt Q54801); assay type: biochemical; settings: IC50 against purified DHFR of strain Sp1/1
T1 sequence (Q54801 1-168 I100L): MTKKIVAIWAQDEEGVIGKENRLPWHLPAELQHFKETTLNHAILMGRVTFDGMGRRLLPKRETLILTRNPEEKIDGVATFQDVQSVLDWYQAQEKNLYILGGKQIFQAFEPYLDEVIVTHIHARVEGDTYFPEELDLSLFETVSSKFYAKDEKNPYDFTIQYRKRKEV

purified DHFR of strain 157/4696 of Staphylococcus aureus, sequence (P13955 whole entry): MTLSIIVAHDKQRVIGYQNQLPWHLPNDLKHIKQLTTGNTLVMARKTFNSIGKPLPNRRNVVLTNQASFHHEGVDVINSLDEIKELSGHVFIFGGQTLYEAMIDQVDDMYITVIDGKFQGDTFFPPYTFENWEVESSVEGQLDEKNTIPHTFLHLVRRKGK

Row | Compound | MIC ([1]; Table 2) [µg/mL] | IC50 [2] [nM] | MIC ([3]; Table 2) [µg/mL] | IC50 ([4]; Table 2) [nM] | MIC ([1]; Table 1) [µg/mL] | MIC ([3]; Table 1) [µg/mL] | IC50 ([4]; Table 1) [nM]
1 | CCOc1cc(Cc2cnc(N)nc2N)cc(OCC(C)C)c1-c1ccc(O)cc1 [Example 08-n, 4′-(2,4-Diamino-pyrimidin-5-ylmethyl)-6′-ethoxy-2′-isobutoxy-biphenyl-4-ol] | 4 (≈ 9.79 µM) | 1200 | 2 (≈ 4.9 µM) | 15 | – | – | –
2 | CCCS(=O)(=O)Oc1cc(Cc2cnc(N)nc2N)cc(OCC)c1-c1ccc(O)cc1 [Example 15-d, Propane-1-sulphonic acid 4-(2,4-diamino-primidin-5-ylmethyl)-6-ethoxy-4′-hydroxy-biphenyl-2-yl ester] | 2 (≈ 4.36 µM) | 62 | 1 (≈ 2.18 µM) | 18 | – | – | –
3 | CCOc1cc(Cc2cnc(N)nc2N)cc(OCC2(/C=C/C#N)CC2)c1-c1ccc(O)cc1 [Example 08-d, (E)-3-[1-[4-(2,4-Diamino-pyrimidin-5-ylmethyl)-6-ethoxy-4′-hydrozy-biphenyl-2-yloxymethyl]-cyopropyl]-acrylonitrile] | 8 (≈ 17.5 µM) | 620 | 4 (≈ 8.74 µM) | 16 | – | – | –
4 | CCOc1cc(Cc2cnc(N)nc2N)cc(OS(=O)(=O)C(C)CC)c1-c1ccc(N)cc1 (stereo not drawn) [Example 35a, Butane-2-sulphonic acid 4′-amino-4-(2,4-diamino-pyrimidin-5-ylmethyl)-6ethoxy-biphenyl-2-yl ester] | – | 110 | – | – | 2 (≈ 4.24 µM) | 0.5 (≈ 1.06 µM) | 3.7
5 | CCOc1cc(Cc2cnc(N)nc2N)cc(OCC)c1-c1cccc([N+](=O)[O-])c1 [Example 02-z, 5-(2,6-Diethoxy-3′-nitro-biphenyl-4-ylmethyl)-pyrimidine-2,4-diamine] | 8 (≈ 19.5 µM) | 1600 | 8 (≈ 19.5 µM) | 60 | – | – | –
6 | CCOc1cc(Cc2cnc(N)nc2N)cc(OC2CCC2)c1-c1ccc(O)cc1 [Example 08-k, 2′-Cyclobutoxy-4′-(2,4-diamino-pyrimidin-5-ylmethyl)-6′-ethoxy-biphenyl-4-ol] | 4 (≈ 9.84 µM) | 2100 | 2 (≈ 4.92 µM) | 43 | – | – | –
7 | CCOc1cc(Cc2cnc(N)nc2N)cc(OCC(C)(C)CO)c1-c1ccc(O)cc1 [Example 08-p] | 8 (≈ 18.2 µM) | 800 | 4 (≈ 9.12 µM) | 20 | – | – | –
8 | CCOc1cc(Cc2cnc(N)nc2N)cc(OC2CCCC2)c1-c1ccc(O)cc1 [Example 08-j, 2′-Cyclopentylox-4′-(2,4-diamino-pyrimidin-5-ylmethyl)-6′-ethoxy-biphenyl-4-ol] | 2 (≈ 4.76 µM) | 1600 | 2 (≈ 4.76 µM) | 26 | – | – | –
9 | CCOc1cc(Cc2cnc(N)nc2N)cc(OCC2(CC#N)CC2)c1-c1ccc(O)cc1 [Example 08-c, {1-[4-(2,4-Diamino-pyrimidin-5-ylmethyl)-6-ethoxy-4′-hydroxy-biphenyl-2-yloxymethyl]-cyclopropyl}-acetonitrile] | 8 (≈ 18 µM) | 1600 | 4 (≈ 8.98 µM) | 24 | – | – | –
10 | CCOc1cc(Cc2cnc(N)nc2N)cc(OC2CCCC2)c1-c1ccc2c(c1)OCO2 [Example 10-d, 5-(4-Benzo[1,3]dioxol-5-yl-3-cyclopentyloxy-5-ethoxy-benzyl)-pyrimidine-2,4-diamine] | 4 (≈ 8.92 µM) | 1700 | 8 (≈ 17.8 µM) | 42 | – | – | –
11 | CCOc1cc(Cc2cnc(N)nc2N)cc(OCC)c1-c1ccc(OC)c(C)c1 [Example 02-n, 5-(2,6-Diethoxy-4′-methoxy-3′-metyl-biphenyl-4-ylmethyl)-pyrimidine-2,4-diamine] | 8 (≈ 19.6 µM) | 1400 | 4 (≈ 9.79 µM) | 110 | – | – | –
12 | CCOc1cc(Cc2cnc(N)nc2N)cc(OCC)c1-c1ccc(NS(C)(=O)=O)cc1 [Example 04-b, N-[4′-(2,4-Diamino-pyrimidin-5-ylmethyl)-2′,6′-diethoxy-biphenyl-4-yl]-methanesulphonamide] | 8 (≈ 17.5 µM) | 1700 | 2 (≈ 4.37 µM) | 36 | – | – | –
